Results reported in patent US20160324201A1, “SWEETENER COMPOSITION FOR ALLEVIATING DIABETES, CONTAINING SLOWLY DIGESTIBLE INGREDIENT” (CJ CHEILJEDANG CORPORATION, priority 2011, published 2016).

What was measured:
[1] = Changes in blood glucose after an identical meal and coffee containing the sweetener composition; assay type: in vivo, human; settings: for Post-meal increase in blood glucose: result in words
Procedure: (1) Preparation of Test Specimen for Measuring Blood Glucose and Method of Intake
(§1) The sweetener composition intake was conducted by providing subjects with an identical meal and then allowing them to drink coffee containing the sweetener composition.
(2) Measurement of Changes in Blood Glucose Levels
(§2) In order to measure changes in blood glucose after the meal, blood glucose level before meal was checked, followed by providing the subjects with the meal and then coffee was given. Blood glucose was measured for 2 hours at intervals of 30 minutes.

[2] = Area under the curve of blood glucose (G-AUC) after meal and coffee containing the sweetener composition; assay type: in vivo, human
Procedure: as §1, §2

[3] = 0 min (before meal), normal subjects, five males and five females
[4] = 30 min after meal and coffee, * = p < 0.01 or less vs Comparative Example 1 (sugar)
[5] = 60 min after meal and coffee, * = p < 0.01 or less vs Comparative Example 1 (sugar)
[6] = 90 min after meal and coffee, * = p < 0.01 or less vs Comparative Example 1 (sugar)

Structure (SMILES): OC[C@H]1O[C@@](CO)(O[C@H]2O[C@H](CO)[C@@H](O)[C@H](O)[C@H]2O)[C@@H](O)[C@@H]1O [Comparative Example 1, Sugar]
- Blood glucose [1, 3]: 93.1 mg/dL
- Blood glucose [1, 4]: 139.1 mg/dL
- Blood glucose [1, 5]: 123.7 mg/dL
- Blood glucose [1, 6]: 98.5 mg/dL
- Blood glucose ([1]; 120 min after meal and coffee): 96.7 mg/dL
- Post-meal increase in blood glucose [1]: highest increase in blood glucose
- G-AUC ([2]; to 30 min): 3483 mg·min/dL
- G-AUC ([2]; to 60 min): 7425 mg·min/dL
- G-AUC ([2]; to 90 min): 10758 mg·min/dL
- G-AUC ([2]; to 120 min): 13686 mg·min/dL

Structure (SMILES): OC[C@@H](O)[C@@H](O)CO [Comparative Example 2, Erythritol]
- Blood glucose [1, 3]: 92.8 mg/dL
- Blood glucose [1, 4]: 137.1 mg/dL
- Blood glucose [1, 5]: 121.6 mg/dL
- Blood glucose [1, 6]: 97.7 mg/dL
- Blood glucose ([1]; 120 min after meal and coffee): 97.2 mg/dL
- Post-meal increase in blood glucose [1]: increase in blood glucose due to the meal only
- G-AUC ([2]; to 30 min): 3449 mg·min/dL
- G-AUC ([2]; to 60 min): 7329 mg·min/dL
- G-AUC ([2]; to 90 min): 10619 mg·min/dL
- G-AUC ([2]; to 120 min): 13542 mg·min/dL

Structure (SMILES): O=C(CO)[C@H](O)[C@H](O)[C@H](O)CO [Comparative Example 3, D-psicose]
- Blood glucose [1, 3]: 92.4 mg/dL
- Blood glucose [1, 4]: 123.3 mg/dL
- Blood glucose [1, 5]: 114.5 mg/dL
- Blood glucose [1, 6]: 93.1 mg/dL
- Blood glucose ([1]; 120 min after meal and coffee): 94.1 mg/dL
- Post-meal increase in blood glucose [1]: lowering increase in blood glucose after the meal
- G-AUC ([2]; to 30 min): 3236 mg·min/dL
- G-AUC ([2]; to 60 min): 6803 mg·min/dL
- G-AUC ([2]; to 90 min): 9917 mg·min/dL
- G-AUC ([2]; to 120 min): 12725 mg·min/dL
